What was measured:
[1] = test system: ABUTH (Velvetleaf); experiment: Preemergence herbicidal evaluation; assay type: in vivo, Abutilon theophrasti; settings: rated 4-5 weeks after treatment; for ABUTH rating: preemergence, 0-9 scale
How it was run: (§1)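 Sown cups got a single aqueous acetone spray of test compound (roughly 0.0156–0.500 kg/ha) before seedlings emerged. Evaluation, 4–5 weeks on, used a 0–9 visual scale covering plant stand, vigor, size, malformation, chlorosis and general appearance compared with controls.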

[2] = test system: GLXMAW (Soybean, Williams); experiment: Preemergence herbicidal evaluation; assay type: in vivo, Glycine max, (L.) Merr. cv Williams; settings: rated 4-5 weeks after treatment; for GLXMAW rating: preemergence, 0-9 scale
How it was run: as §1

[3] = test system: ZEAMX (Corn, Field); experiment: Postemergence herbicidal evaluation; assay type: in vivo, Zea mays; settings: for herbicidal rating ZEAMX: postemergence
How it was run: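 First, seedlings were raised for around two weeks. Next, test material in 50/50 acetone/water containing 0.5% TWEEN 20 was sprayed through a nozzle at 40 psi, equivalent to about 0.0156–0.500 kg/ha. Finally, after 4–5 weeks in the greenhouse, plants were rated 0–9.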

[4] = test system: SAGPY (Arrowhead (Pygmaea)); experiment: Postemergence weed control under flooded paddy conditions; assay type: in vivo, Sagittaria pygmaea; settings: postemergence weeds
How it was run: (§2)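 Herbicidal effect is judged by eye on a 0–9 scale versus control, 3–4 weeks after dosing. Dosing is into flood water kept 1.5–3 cm over the soil, at about 0.0313–0.500 kg/ha in aqueous/acetone 50/50 v/v, on 3–5 cm weeds and 1.5–2.5-leaf rice seedlings.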

[5] = test system: AMBEL (Ragweed, Common); experiment: Preemergence herbicidal evaluation; assay type: in vivo, Ambrosia artemisifolia; settings: rated 4-5 weeks after treatment; for AMBEL rating: preemergence, 0-9 scale
How it was run: as §1

[6] = test system: MOOVA (Monochoria); experiment: Postemergence weed control under flooded paddy conditions; assay type: in vivo, Monochoria vaginalis; settings: postemergence weeds
How it was run: as §2

[7] = rate 0.0313 kg/ha, 3-4 weeks after treatment
[8] = rate 0.0625 kg/ha, 3-4 weeks after treatment
[9] = rate 0.1250 kg/ha, 3-4 weeks after treatment
[10] = rate 0.2500 kg/ha, 3-4 weeks after treatment
[11] = Rate 0.0313 kg/ha, rated 3 to 4 weeks after treatment
[12] = Rate 0.0625 kg/ha, rated 3 to 4 weeks after treatment
[13] = Rate 0.1250 kg/ha, rated 3 to 4 weeks after treatment
[14] = Rate 0.2500 kg/ha, rated 3 to 4 weeks after treatment

With CCOC(=O)CN1C(=O)C(CC(=O)O)O/C1=N/c1cc(-n2c(=O)cc(C(F)(F)F)n(C)c2=O)c(F)cc1Cl (centres unmarked) [Compound 41, 2-{{2-Chloro-5-[3,6-dihydro-3-methyl-2,6-dioxo-4-(trifluoromethyl)-1(2H)-pyrimidinyl]-4-fluoro-phenyl}imino}-4-oxo-3,5-oxazolidinediacetic acid, 3-ethyl ester] the “Preemergence herbicidal rating ABUTH” value ([1]; rate 0.0156 kg/ha) was 7.0, the “Preemergence herbicidal rating ABUTH” value ([1]; rate 0.0313 kg/ha) was 9.0 and the “Preemergence herbicidal rating ABUTH” value ([1]; rate 0.0625 kg/ha) was 9.0. For the same compound, the “Preemergence herbicidal rating ABUTH” value ([1]; rate 0.1250 kg/ha) was 9.0, the “Preemergence herbicidal rating ABUTH” value ([1]; rate 0.2500 kg/ha) was 9.0 and the “Preemergence herbicidal rating GLXMAW” value ([2]; rate 0.0156 kg/ha) was 0.0. The “Preemergence herbicidal rating GLXMAW” value ([2]; rate 0.0313 kg/ha) was 1.0, the “Preemergence herbicidal rating GLXMAW” value ([2]; rate 0.0625 kg/ha) was 3.0 and the “Preemergence herbicidal rating GLXMAW” value ([2]; rate 0.1250 kg/ha) was 2.0. The “Preemergence herbicidal rating GLXMAW” value ([2]; rate 0.2500 kg/ha) was 6.0, the “Postemergence herbicidal rating ZEAMX” value ([3]; Rate 0.0158 kg/ha) was 7.0 and the “Postemergence herbicidal rating ZEAMX” value ([3]; Rate 0.0315 kg/ha) was 8.0. The “Postemergence herbicidal rating ZEAMX” value ([3]; Rate 0.0630 kg/ha) was 7.5, the “Herbicidal rating SAGPY” value [4, 7] was 0.0 and the “Herbicidal rating SAGPY” value [4, 8] was 0.0. For the same compound, the “Herbicidal rating SAGPY” value [4, 9] was 0.0, the “Herbicidal rating SAGPY” value [4, 10] was 6.0 and the “Preemergence herbicidal rating AMBEL” value ([5]; rate 0.0156 kg/ha) was 0.0. The “Preemergence herbicidal rating AMBEL” value ([5]; rate 0.0313 kg/ha) was 1.0, the “Preemergence herbicidal rating AMBEL” value ([5]; rate 0.0625 kg/ha) was 2.0 and the “Preemergence herbicidal rating AMBEL” value ([5]; rate 0.1250 kg/ha) was 9.0. The “Preemergence herbicidal rating AMBEL” value ([5]; rate 0.2500 kg/ha) was 8.0, the “Herbicidal rating MOOVA” value [6, 7] was 6.0 and the “Herbicidal rating MOOVA” value [6, 8] was 9.0. For the same compound, the “Herbicidal rating MOOVA” value [6, 9] was 9.0 and the “Herbicidal rating MOOVA” value [6, 10] was 9.0.
With CCOC(=O)CN1C(=O)C(CC(=O)NS(=O)(=O)CC)SC1=Nc1cc(-n2c(=O)cc(C(F)(F)F)n(C)c2=O)c(F)cc1Cl (centres unmarked) [Compound 103, Ethyl 2-{{2-chloro-5-[3,6-dihydro-3-methyl-2,6-dioxo-4-(trifluoromethyl)-1(2H)-pyrimidinyl]-4-fluorophenyl}imino}-5-{[(ethylsulfonyl)carbamoyl]-methyl}-4-oxo-3-thiazolidineacetate] the ABUTH rating ([1]; 0.0313 kg/ha) was 9.0, the ABUTH rating ([1]; 0.0625 kg/ha) was 9.0 and the ABUTH rating ([1]; 0.1250 kg/ha) was 9.0. For the same compound, the ABUTH rating ([1]; 0.2500 kg/ha) was 9.0, the ABUTH rating ([1]; 0.5000 kg/ha) was 9.0 and the GLXMAW rating ([2]; 0.0313 kg/ha) was 0.0. For the same compound, the GLXMAW rating ([2]; 0.0625 kg/ha) was 0.0, the GLXMAW rating ([2]; 0.1250 kg/ha) was 0.0 and the GLXMAW rating ([2]; 0.2500 kg/ha) was 0.0. For the same compound, the GLXMAW rating ([2]; 0.5000 kg/ha) was 3.0, the “herbicidal rating ZEAMX” value ([3]; rate 0.0156 kg/ha) was 5.5 and the “herbicidal rating ZEAMX” value ([3]; rate 0.0313 kg/ha) was 7.5. The “herbicidal rating ZEAMX” value ([3]; rate 0.0625 kg/ha) was 8.5, the “herbicidal rating ZEAMX” value ([3]; rate 0.1250 kg/ha) was 8.5 and the “Herbicidal rating SAGPY” value [4, 11] was 7.0. The “Herbicidal rating SAGPY” value [4, 12] was 9.0, the “Herbicidal rating SAGPY” value [4, 13] was 9.0 and the “Herbicidal rating SAGPY” value [4, 14] was 9.0. For the same compound, the AMBEL rating ([5]; 0.0313 kg/ha) was 0.0, the AMBEL rating ([5]; 0.0625 kg/ha) was 0.0 and the AMBEL rating ([5]; 0.1250 kg/ha) was 0.0. The AMBEL rating ([5]; 0.2500 kg/ha) was 4.0, the AMBEL rating ([5]; 0.5000 kg/ha) was 9.0 and the “Herbicidal rating MOOVA” value [6, 11] was 5.0. The “Herbicidal rating MOOVA” value [6, 12] was 7.0, the “Herbicidal rating MOOVA” value [6, 13] was 9.0 and the “Herbicidal rating MOOVA” value [6, 14] was 9.0.
C#CCOC(=O)CC1SC(=Nc2cc(-n3c(=O)cc(C(F)(F)F)n(C)c3=O)c(F)cc2Cl)N(CC(=O)OCC)C1=O (centres unmarked) [Compound 59, 2-{{2-Chloro-5-[3,6-dihydro-3-methyl-2,6-dioxo-4-(trifluoromethyl)-1(2H)-pyrimidinyl]-4-fluorophenyl}imino}-4-oxo-3,5-thiazolidinediacetic acid, 3-ethyl (2-propynyl) ester] was tested, and the “Preemergence herbicidal rating ABUTH” value ([1]; rate 0.0156 kg/ha) was 2.0, the “Preemergence herbicidal rating ABUTH” value ([1]; rate 0.0313 kg/ha) was 6.0 and the “Preemergence herbicidal rating ABUTH” value ([1]; rate 0.0625 kg/ha) was 8.5. The “Preemergence herbicidal rating ABUTH” value ([1]; rate 0.1250 kg/ha) was 9.0, the “Preemergence herbicidal rating ABUTH” value ([1]; rate 0.2500 kg/ha) was 9.0 and the “Preemergence herbicidal rating ABUTH” value ([1]; rate 0.5000 kg/ha) was 9.0. The “Preemergence herbicidal rating GLXMAW” value ([2]; rate 0.0156 kg/ha) was 1.0, the “Preemergence herbicidal rating GLXMAW” value ([2]; rate 0.0313 kg/ha) was 0.5 and the “Preemergence herbicidal rating GLXMAW” value ([2]; rate 0.0625 kg/ha) was 1.0. The “Preemergence herbicidal rating GLXMAW” value ([2]; rate 0.1250 kg/ha) was 4.0, the “Preemergence herbicidal rating GLXMAW” value ([2]; rate 0.2500 kg/ha) was 7.0 and the “Preemergence herbicidal rating GLXMAW” value ([2]; rate 0.5000 kg/ha) was 9.0. The “Postemergence herbicidal rating ZEAMX” value ([3]; Rate 0.0158 kg/ha) was 7.5, the “Postemergence herbicidal rating ZEAMX” value ([3]; Rate 0.0315 kg/ha) was 8.0 and the “Postemergence herbicidal rating ZEAMX” value ([3]; Rate 0.0630 kg/ha) was 8.5. The “Herbicidal rating SAGPY” value [4, 12] was 0.0, the “Herbicidal rating SAGPY” value [4, 9] was 0.0 and the “Herbicidal rating SAGPY” value [4, 10] was 3.0. For the same compound, the “Preemergence herbicidal rating AMBEL” value ([5]; rate 0.0156 kg/ha) was 2.0, the “Preemergence herbicidal rating AMBEL” value ([5]; rate 0.0313 kg/ha) was 3.5 and the “Preemergence herbicidal rating AMBEL” value ([5]; rate 0.0625 kg/ha) was 6.5. For the same compound, the “Preemergence herbicidal rating AMBEL” value ([5]; rate 0.1250 kg/ha) was 9.0, the “Preemergence herbicidal rating AMBEL” value ([5]; rate 0.2500 kg/ha) was 9.0 and the “Preemergence herbicidal rating AMBEL” value ([5]; rate 0.5000 kg/ha) was 9.0. The “Herbicidal rating MOOVA” value [6, 12] was 0.0, the “Herbicidal rating MOOVA” value [6, 9] was 0.0 and the “Herbicidal rating MOOVA” value [6, 10] was 9.0.
